Data taken from the NIST ThermoML archive (doi:10.1021/acs.jced.7b01011).
± gives the expanded uncertainty stated by the source.

What was measured:
[1] = Crystal; DTA
[2] = Molar enthalpy of transition or fusion; conditions: Crystal; DSC

Cc1ccc(NC(=O)/C(=C/Cl)Sc2ccccc2)cc1 [(Z)-3-chloro-2-phenylthio-N-(p-tolyl)acrylamide]
Normal melting temperature [1]: 108.00 ± 1.1 °C | Molar enthalpy of transition or fusion [2]: 6.16 ± 0.232 kcal/mol
